Drawing on patent publication US11912737B2, “19-nor neuroactive steroids and methods of use thereof” (Sage Therapeutics, Inc., priority 2013, dated 2024), this text covers IC50, EC50 and Emax for 34 compounds.

One may read the IC50 as the concentration at which inhibition is half-maximal. By EC50 is commonly meant the concentration giving half of the maximal effect. Low values mean higher potency in that assay, high ones lower potency in that assay.

Structures are written as SMILES.

For one test, the target named is [35S]-TBPS binding, rat brain cortical membranes. Briefly: Steroid inhibition of [35S]-TBPS binding. The following applies: 3 nM [35S]-TBPS, in the presence of 5 μM GABA. Here is the method:
Steroid Inhibition of TBPS Binding
[35S]-t-Butylbicylophorothionate (TBPS) binding assays using rat brain cortical membranes in the presence of 5 μM GABA has been described (Gee et al, J. Pharmacol. Exp. Ther. 1987, 241, 346-353; Hawkinson et al, Mol. Pharmacol. 1994, 46, 977-985; Lewin, A. H et al., Mol. Pharmacol. 1989, 35, 189-194).
Briefly, cortices are rapidly removed following decapitation of carbon dioxide-anesthetized Sprague-Dawley rats (200-250 g). The cortices are homogenized in 10 volumes of ice-cold 0.32 M sucrose using a glass/teflon homogenizer and centrifuged at 1500×g for 10 min at 4° C. The resultant supernatants are centrifuged at 10,000×g for 20 min at 4° C. to obtain the P2 pellets. The P2 pellets are resuspended in 200 mM NaCl/50 mM Na—K phosphate pH 7.4 buffer and centrifuged at 10,000×g for 10 min at 4° C. This washing procedure is repeated twice and the pellets are resuspended in 10 volumes of buffer. Aliquots (100 μL) of the membrane suspensions are incubated with 3 nM [^35S]-TBPS and 5 μL aliquots of test drug dissolved in dimethyl sulfoxide (DMSO) (final 0.5%) in the presence of 5 μM GABA. The incubation is brought to a final volume of 1.0 mL with buffer. Nonspecific binding is determined in the presence of 2 μM unlabeled TBPS and ranged from 15 to 25%. Following a 90 min incubation at room temp, the assays are terminated by filtration through glass fiber filters (Schleicher and Schuell No. 32) using a cell harvester (Brandel) and rinsed three times with ice-cold buffer. Filter bound radioactivity is measured by liquid scintillation spectrometry. Non-linear curve fitting of the overall data for each drug averaged for each concentration is done using Prism (GraphPad).
Various compounds are or can be screened to determine their potential as modulators of [^355]-TBPS binding in vitro. These assays are or can be performed in accordance with the above discussed procedures.
As for `C[C@@]1(O)CC[C@H]2[C@@H](CC[C@@H]3[C@@H]2CC[C@]2(C)[C@@H](C(=O)CN4CCNCC4)CC[C@@H]32)C1` [Entry 24], the concentration for half-maximal inhibition (IC50) was at least 500 nM.
As to `CC(=O)N1CCN(CC(=O)[C@H]2CC[C@H]3[C@@H]4CC[C@H]5C[C@](C)(O)[C@H](C)C[C@@H]5[C@H]4CC[C@]23C)CC1` [Entry 20], the half-maximal inhibitory concentration (IC50) is 100 to 500 nM.
`C[C@@]1(O)CC[C@H]2[C@@H](CC[C@@H]3[C@@H]2CC[C@]2(C)[C@@H](C(=O)CN4CCC(O)CC4)CC[C@@H]32)C1` [Entry 12]: the concentration for half-maximal inhibition (IC50) was at least 500 nM.
Still for that read-out and setting: to `C[C@@]1(O)CC[C@H]2[C@H](CC[C@@H]3[C@@H]2CC[C@]2(C)[C@@H](C(=O)CN4CCNCC4)CC[C@@H]32)C1` [Entry 51] belongs 100 to 500 nM; to `C[C@@H]1CCCCN1CC(=O)[C@H]1CC[C@H]2[C@@H]3CC[C@@H]4C[C@](C)(O)CC[C@@H]4[C@H]3CC[C@]12C` [Entry 37], 100 to 500 nM.
Still for that read-out and setting: to `C[C@@]1(O)CC[C@@H]2[C@H]3CC[C@]4(C)[C@@H](C(=O)CN5CCOCC5)CC[C@H]4[C@@H]3C[C@@H](F)[C@H]2C1` [Entry 38] belongs at least 500 nM.
Turning to `C[C@@H]1C[C@H]2[C@@H](CC[C@@H]3[C@@H]2CC[C@]2(C)[C@@H](C(=O)CN4CCOCC4)CC[C@@H]32)C[C@]1(C)O` [Entry 39], the half-maximal inhibitory concentration (IC50) was 100 to 500 nM.
The same measure, in the same setting: to `C[C@@]1(O)CC[C@H]2[C@@H](CC[C@@H]3[C@@H]2CC[C@]2(C)[C@@H](C(=O)CN4CCCC(O)C4)CC[C@@H]32)C1` (some centres unmarked) [Entry 15] belongs at least 500 nM.
Still for that read-out and setting: to `C[C@@H]1COCCN1CC(=O)[C@H]1CC[C@H]2[C@@H]3CC[C@@H]4C[C@](C)(O)CC[C@@H]4[C@H]3CC[C@]12C` [Entry 11] belongs 100 to 500 nM; to `C[C@@]1(O)CC[C@H]2[C@H](CC[C@@H]3[C@@H]2CC[C@]2(C)[C@@H](C(=O)CN4CCCOCC4)CC[C@@H]32)C1` [Entry 53], 100 to 500 nM.
As for `COC[C@@]1(O)CC[C@H]2[C@H](CC[C@@H]3[C@@H]2CC[C@]2(C)[C@@H](C(=O)CN4CCOCC4)CC[C@@H]32)C1` [Entry 43], the 50% inhibitory concentration (IC50) was at least 500 nM.
Turning to `C[C@]12CC[C@H]3[C@@H](CC[C@@H]4C[C@@](O)(C(F)F)CC[C@@H]43)[C@@H]1CC[C@@H]2C(=O)CN1CCOCC1` [Entry 40], the IC50 is at least 500 nM.
Still for that read-out and setting: next, `COC[C@@]1(O)CC[C@H]2[C@@H](CC[C@@H]3[C@@H]2CC[C@]2(C)[C@@H](C(=O)CN4CCOCC4)CC[C@@H]32)C1` [Entry 42]: at least 500 nM; `CO[C@H]1C[C@H]2[C@@H](CC[C@@H]3[C@@H]2CC[C@]2(C)[C@@H](C(=O)CN4CCOCC4)CC[C@@H]32)C[C@]1(C)O` [Entry 41]: at least 500 nM; `C[C@]12CC[C@H]3[C@@H](CC[C@@H]4C[C@@](O)(CF)CC[C@@H]43)[C@@H]1CC[C@@H]2C(=O)CN1CCOCC1` [Entry 46]: at least 500 nM.
As for `CC(=O)N1CCN(CC(=O)[C@H]2CC[C@H]3[C@@H]4CC[C@H]5C[C@](C)(O)[C@@H](C)C[C@@H]5[C@H]4CC[C@]23C)CC1` [Entry 21], the 50% inhibitory concentration (IC50) lay within 100 to 500 nM.
Regarding `COC[C@@]1(O)CC[C@H]2[C@@H](CC[C@@H]3[C@@H]2CC[C@]2(C)[C@@H](C(=O)CN4CCN(S(C)(=O)=O)CC4)CC[C@@H]32)C1` [Entry 52], the IC50 was in the range of 100 to 500 nM.
For `C[C@@]1(O)CC[C@@H]2[C@H]3CC[C@]4(C)[C@@H](C(=O)CN5CCOCC5)CC[C@H]4[C@@H]3C[C@@H](F)[C@@H]2C1` [Entry 44], the IC50 is at least 500 nM.
The same measure, in the same setting: to `C[C@H]1CN(CC(=O)[C@H]2CC[C@H]3[C@@H]4CC[C@@H]5C[C@](C)(O)CC[C@@H]5[C@H]4CC[C@]23C)C[C@H](C)O1` [Entry 31] belongs 10 to 50 nM; to `CC(=O)N1CCN(CC(=O)[C@H]2CC[C@H]3[C@@H]4CC[C@H]5C[C@](C)(O)CC[C@@H]5[C@H]4CC[C@]23C)CC1` [Entry 13], 100 to 500 nM.
For the compound `C[C@@]1(O)CC[C@H]2[C@H](CC[C@@H]3[C@@H]2CC[C@]2(C)[C@@H](C(=O)CN4CC(O)C4)CC[C@@H]32)C1` [Entry 5], the concentration for half-maximal inhibition (IC50) was at least 500 nM.
With `C[C@H]1C[C@H]2[C@@H](CC[C@@H]3[C@@H]2CC[C@]2(C)[C@@H](C(=O)CN4CCOCC4)CC[C@@H]32)C[C@]1(C)O` [Entry 18], the IC50 was in the range of 100 to 500 nM.
With `COC[C@@]1(O)CC[C@H]2[C@H](CC[C@@H]3[C@@H]2CC[C@]2(C)[C@@H](C(=O)CN4CCN(S(C)(=O)=O)CC4)CC[C@@H]32)C1` [Entry 22], the IC50 was 100 to 500 nM.
For the compound `CC[C@@]1(O)CC[C@H]2[C@@H](CC[C@@H]3[C@@H]2CC[C@]2(C)[C@@H](C(=O)CN4CCN(S(C)(=O)=O)CC4)CC[C@@H]32)C1` [Entry 33], the IC50 was in the range of 100 to 500 nM.
Regarding `CC[C@@]1(O)CC[C@H]2[C@@H](CC[C@@H]3[C@@H]2CC[C@]2(C)[C@@H](C(=O)CN4CCOCC4)CC[C@@H]32)C1` [Entry 49], the IC50 was at least 500 nM.
The same measure, in the same setting: to `C[C@]12CC[C@H]3[C@@H](CC[C@H]4C[C@@](O)(CF)CC[C@@H]43)[C@@H]1CC[C@@H]2C(=O)CN1CCOCC1` [Entry 48] belongs at least 500 nM.
Regarding `C[C@@]1(O)CC[C@H]2[C@H](CC[C@@H]3[C@@H]2CC[C@]2(C)[C@@H](C(=O)CN4CCNCC4)CC[C@@H]32)C1` [Entry 23], the half-maximal inhibitory concentration (IC50) is at least 500 nM.
For the compound `C[C@@H]1C[C@H]2[C@@H](CC[C@@H]3[C@@H]2CC[C@]2(C)[C@@H](C(=O)CN4CCN(S(C)(=O)=O)CC4)CC[C@@H]32)C[C@]1(C)O` [Entry 25], the IC50 lay in the range of 50 to 100 nM.

In another test the target is α1β2γ2 GABAA receptor (Homo sapiens (Human), UniProt P14867+P47870).
Assay: not given
Settings: not given
Consider `C[C@@H]1COCCN1CC(=O)[C@H]1CC[C@H]2[C@@H]3CC[C@@H]4C[C@](C)(O)CC[C@@H]4[C@H]3CC[C@]12C` [Entry 3], for which the EC50 is over 2000 nM.

Staying with this test, now noted: LTK, read-out: GABA (α1β2γ2) Qpatch in Ltk, % efficacy at 10 μM, Qpatch, Ltk cells, 10 μM compound, 2 μM GABA.
As to `CC[C@@]1(O)CC[C@H]2[C@H](CC[C@@H]3[C@@H]2CC[C@]2(C)[C@@H](C(=O)CN4CCN(S(C)(=O)=O)CC4)CC[C@@H]32)C1` [Entry 34], the Emax at 10 µM lay within 100 to 500%.
As to `C[C@]12CC[C@H]3[C@@H](CC[C@@H]4C[C@@](O)(CF)CC[C@@H]43)[C@@H]1CC[C@@H]2C(=O)CN1CCN(S(C)(=O)=O)CC1` [Entry 32], the Emax at 10 µM was over 500%.
In the case of `CNC(=O)N1CCN(CC(=O)[C@H]2CC[C@H]3[C@@H]4CC[C@@H]5C[C@](C)(O)CC[C@@H]5[C@H]4CC[C@]23C)CC1` [Entry 9], the Emax at 10 µM is 100 to 500%.
On the same count and under the same terms, next, `C[C@]12CC[C@H]3[C@@H](CC[C@@H]4C[C@@](O)(CF)CC[C@@H]43)[C@@H]1CC[C@@H]2C(=O)CN1CCOCC1` [Entry 55]: 10 to 100%; `CC(=O)N1CCN(CC(=O)[C@H]2CC[C@H]3[C@@H]4CC[C@H]5C[C@](C)(O)[C@H](C)C[C@@H]5[C@H]4CC[C@]23C)CC1` [Entry 26]: 100 to 500%.

The test is the same for the next values; noted with them: LTK, read-out: GABAa alpha1 (α1β2γ2) Emax (%), potentiation of GABA EC20 (2 μM) current.
`C[C@@H]1COCCN1CC(=O)[C@H]1CC[C@H]2[C@@H]3CC[C@@H]4C[C@](C)(O)CC[C@@H]4[C@H]3CC[C@]12C` [Entry 3]: the Emax lay in the range of 0 to 500%.
